# Results from patent US9458133B2, “Isoquinolines as potassium ion channel inhibitors” (BRISTOL-MYERS SQUIBB COMPANY, priority 2013, dated 2016).
# Molecular target: T1, human Kv 1.5 (Homo sapiens, UniProt P22460)
# T1 construct: expressed in transfected cells; host or cells: mouse L-929 fibroblasts stably expressing human Kv1.5
# Experiment: Block of IKur current in patch clamped L-929 cells stably expressing human Kv1.5
# Assay type: cell-based
# Settings: L929, 0.3 μM; patch clamped mammalian L-929 cells expressing human Kv1.5 (IKur); read-out: KV1_5% Inh L929 @0.3 μM
# From the text: Synders, D. J. et al., “A rapidly activating and slowly inactivating potassium channel cloned from human heart: functional analysis after stable mammalian cell culture expression”, J. Gen. Physiol., 101:513-543 (1993). […]
# T1 sequence (P22460 whole entry): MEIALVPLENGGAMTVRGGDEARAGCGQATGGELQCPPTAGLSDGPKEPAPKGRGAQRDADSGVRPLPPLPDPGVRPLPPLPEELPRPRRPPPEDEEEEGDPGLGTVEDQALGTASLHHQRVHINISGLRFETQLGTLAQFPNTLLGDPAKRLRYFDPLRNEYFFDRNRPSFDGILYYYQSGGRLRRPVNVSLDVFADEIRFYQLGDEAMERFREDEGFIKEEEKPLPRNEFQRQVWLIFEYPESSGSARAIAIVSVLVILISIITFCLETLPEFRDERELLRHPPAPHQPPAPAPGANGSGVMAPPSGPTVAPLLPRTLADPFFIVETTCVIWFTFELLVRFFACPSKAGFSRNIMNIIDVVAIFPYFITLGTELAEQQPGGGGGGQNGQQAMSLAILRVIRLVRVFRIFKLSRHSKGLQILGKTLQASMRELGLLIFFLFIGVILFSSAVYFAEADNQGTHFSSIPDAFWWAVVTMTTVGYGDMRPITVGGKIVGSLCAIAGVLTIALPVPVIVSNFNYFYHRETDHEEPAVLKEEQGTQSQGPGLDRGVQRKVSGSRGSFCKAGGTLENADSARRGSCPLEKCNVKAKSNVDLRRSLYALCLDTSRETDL
row,Structure (SMILES),inhibition at 0.3 µM
1,"CC(C)C(Nc1nc(Cl)c(-c2cncc(S(N)(=O)=O)c2)c2cccc(-c3ccccc3)c12)c1ccccn1 (stereo not drawn) [Example 80, 5-(3-chloro-1-(2-methyl-1-(pyridin-2-yl)propylamino)-8-phenylisoquinolin-4-yl)pyridine-3-sulfonamide]",92.5%
2,"NS(=O)(=O)c1cncc(-c2cnc(NCC3CCCCO3)c3c(-c4ccccc4)cccc23)c1 (stereo not drawn) [Example 82, 5-(8-phenyl-1-((tetrahydro-2H-pyran-2-yl)methylamino)isoquinolin-4-yl)pyridine-3-sulfonamide]",85%
3,"Clc1nc(NCc2ccccc2)c2c(-c3ccccc3)cccc2c1C1=CCOCC1 [Example 83, N-benzyl-3-chloro-4-(3,6-dihydro-2H-pyran-4-yl)-8-phenylisoquinolin-1-amine]",19.3%

# More lines, now with the values ahead:
row,inhibition at 0.3 µM,Structure (SMILES)
1,67.5%,"CC(Nc1nc(Cl)c(-c2cccc(S(N)(=O)=O)c2)c2cccc(-c3ccccc3)c12)c1ccccc1 (stereo not drawn) [Example 79, 3-(3-chloro-8-phenyl-1-(1-phenylethylamino)isoquinolin-4-yl)benzenesulfonamide]"
2,98.4%,"NS(=O)(=O)c1cccc(-c2c(Cl)nc(NCc3ccccn3)c3c(-c4ccccc4)cccc23)c1 [Example 84, 3-(3-chloro-8-phenyl-1-(pyridin-2-ylmethylamino)isoquinolin-4-yl)benzenesulfonamide]"
3,99%,"NS(=O)(=O)c1cccc(-c2cnc(NCc3ccccn3)c3c(-c4ccccc4)cccc23)c1 [Example 85, 3-(8-phenyl-1-(pyridin-2-ylmethylamino)isoquinolin-4-yl)benzenesulfonamide]"
